This is an account of results in PubChem BioAssay (NCI).

Assay in all cases: growth of human tumour cells (NCI), 48 h
The subject of assay [1] is SF-295 CNS.
In assay [2] the test system is MDA-MB-435.
For assay [3], the system named is M14 melanoma.
In assay [4] the test system is NCI-H460 lung.
In assay [5] the test system is COLO 205 colon.
In assay [6] the test system is SNB-19 CNS.
Assay [7] deals with CAKI-1 renal.
Assay [8] relates to HOP-92 NSCLC.
Assay [9] deals with HL-60(TB) leukemia.

The structures appear in SMILES notation. Values joined by “and” are separate entries in the source; they are usually repeats but may differ in a detail not shown here. Equal entries are not always repeated.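 Where inhibition never reached the appropriate level, the endpoint shown equals the highest concentration tested. Otherwise, values were interpolated linearly from a five-concentration, 48-hour dose response in 96-well plates. The concentration for 50% growth inhibition is given as GI50. At the TGI there is no net growth.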

`O=C1c2cc([N+](=O)[O-])sc2C(=O)c2cc([N+](=O)[O-])sc21`: the TGI amounted to 23.9 µM in [1]; 4.73 µM in assay [2]; 9.25 µM in [3]; 43.8 µM in [4]; 6.1 µM in assay [5]; 8.9 µM in [6]. Besides, the TGI worked out at 8.81 µM in assay [7] and 4.04 µM in assay [8].
Turning to `COc1cc(C2SCC(=O)N2NC(=O)c2ccc(NC(C)=O)cc2OC)ccc1O` (configuration not stated), the TGI in assay [1] is 47 µM; in [9] it was more than 100 µM; in [2], more than 100 µM; in assay [3] it was more than 100 µM; in assay [5], more than 100 µM; in assay [6], more than 100 µM. Further, the values for the TGI in assay [7] and in assay [8] were more than 100 µM and 73.9 µM, respectively.
For the compound `C=C(C)C1CC2=C(O1)C(=O)c1cccc(O)c1C2=O` (configuration not stated), the TGI came to 2.73 µM in [1]; 0.271 µM in [2]; 2.43 µM in assay [3]; 3.75 µM in assay [4]; 3.25 µM in assay [5]; 3.11 µM in assay [6]. Also, the figures for the TGI in [7] and in assay [8] were 2.08 µM and 11.5 µM, respectively.
For the compound `CC(C)(C)OC(=O)N1CCC(NC(=O)NC2CCN(C(=O)OC(C)(C)C)CC2)CC1`, the TGI in assay [1], in assay [9], in assay [2], in assay [3], in [4] and in [6] was more than 100 µM each time. Also, the TGI in assay [7] and in assay [8] was more than 100 µM each time.
`Cc1nn(C(=O)c2ccncc2)c2c1C(c1ccc([N+](=O)[O-])cc1)SC(N)=N2` (configuration not stated): the TGI in assay [1], in [9], in assay [2], in assay [3], in assay [4] and in assay [5] was more than 100 µM throughout. In addition, the TGI in assay [6] and in assay [8] was more than 100 µM throughout.
Turning to `Nc1ncnc2c1cnn2COCC(O)CO` (configuration not stated), the TGI in [1], in assay [2], in [3], in [4], in [5] and in assay [6] was more than 100 µM throughout. Also, the TGI in [7] and in [8] was more than 100 µM throughout.
`CC(C)C[C@H](NC(=O)CCc1cccc2ccccc12)B(O)O`: the TGI in assay [1] is 20.2 µM; in assay [2], 1.02 µM; in [3], 3.72 µM; in assay [4], 19.5 µM; in assay [5] it was 36.3 µM; in assay [6], more than 100 µM. For the same compound, the TGI in assay [7] came to 3.94 µM; in assay [8], 7.37 µM.
With `CC(C)C1=CC23CCC4C(C)(C(=O)O)CCCC4(C)C2CC1C1C(=O)N(c2cccc(N4C(=O)C5C6CC7C8(C)CCCC(C)(C(=O)O)C8CCC7(C=C6C(C)C)C5C4=O)c2)C(=O)C13` (configuration not stated), the TGI in [9] is 30.7 µM; in [2], 15.2 µM; in [3], 25.5 µM; in assay [5], 23.8 µM; in [8], 39.6 µM.
Regarding `O=C(NNC(=O)c1c(Cl)c(Cl)c(Cl)c(Cl)c1-c1nc2ccccc2[nH]1)c1ccc(Cl)cc1`, the TGI is more than 100 µM in assay [1]; more than 100 µM in assay [9]; 69.8 µM in assay [2]; more than 100 µM in assay [3]; more than 100 µM in assay [5]; more than 100 µM in assay [6]. Further, the TGI in assay [7] is more than 100 µM; in assay [8] it was 84.7 µM.
As for `CCOC(=O)C(=O)C(/C(=N/N(C)C)C(=O)Nc1ccc(C)cc1C)c1nc2ccccc2[nH]c1=O` (configuration not stated), the TGI in [1], in assay [9], in assay [2], in assay [3], in assay [4] and in [6] was more than 100 µM in each case. The TGI in [7] and in assay [8] was more than 100 µM throughout.
As to `Brc1ccc(C2CC3(c4ccccc4)ON=C(c4ccccc4)N3c3ccccc3S2)cc1` (configuration not stated), the TGI in [1], in assay [9], in assay [2], in assay [3], in assay [4] and in [5] was more than 100 µM throughout. In addition, the TGI in assay [6] and in [8] was more than 100 µM in each case.
`C=COC(=O)N1C2CCCC(Cl)(C(C)=O)C1CC2` (configuration not stated): the TGI in [1], in assay [2], in [3], in assay [4], in assay [5] and in assay [6] was more than 100 µM in each case. In addition, the TGI in assay [7] and in [8] was more than 100 µM throughout.
On to `O=C(N[C@@H](Cc1ccccc1)B(O)O)[C@H](Cc1cccc2ccccc12)NC(=O)N1CCOCC1`, for which the TGI in [1] was 0.0304 µM and 0.0239 µM; in assay [2], 0.00103 µM; in assay [3], 0.00405 µM; in assay [4], 0.106 µM and 0.0579 µM; in [5], 0.197 µM and 0.233 µM; in [6], 0.671 µM. Besides, the TGI in [7] is 0.048 µM and 0.18 µM; in [8] it was 0.00744 µM. The results for the GI50 in [4] and in assay [7] were 0.0172 µM and 0.0228 µM, respectively.
As to `CCOC(=O)c1csc(-c2nc(CCNC(=O)c3ccccc3)sc2Cl)n1`, the TGI in assay [1], in assay [9], in assay [2], in [3], in assay [4] and in assay [5] was more than 100 µM in each case. Further, the TGI in [6] is more than 100 µM; in assay [8] it was 46.4 µM.
In the case of `CN(C(=O)c1ccc(Cl)cc1)C(=S)N1CCN(c2ccccc2)CC1`, the TGI in [1], in [9], in assay [2], in [3], in assay [4] and in [5] was more than 100 µM in each case. Moreover, the TGI in [6] and in assay [8] was more than 100 µM each time.
For the compound `CCCCN1CCC(O)(c2cc(C(=O)O)[nH]c2-c2cc(C)no2)C1=O` (configuration not stated), the TGI in assay [1], in assay [2], in [3], in assay [4], in [5] and in assay [6] was more than 100 µM throughout. The TGI in assay [7] and in assay [8] was more than 100 µM each time.
